Where “and” joins values, the source holds several entries; their conditions need not be identical. Identical values can stand only once. Calls of active or inactive are those of the source. The rule behind the calls is not given here.
Experiments:
MGC-803 [1] = assay: Induction of apoptosis in human MGC-803 cells assessed as late apoptotic cells at 2.5 uM incubated for 48 hrs by annexin V FITC/propidium iodide staining based flow cytometry (reference value: 4.07 %); format: functional
MGC-803 [2] = assay: Induction of apoptosis in human MGC-803 cells assessed as early apoptotic cells at 2.5 uM incubated for 48 hrs by annexin V FITC/propidium iodide staining based flow cytometry (reference value: 0.42 %); format: functional
HGC-27 [3] = assay: Induction of apoptosis in human HGC-27 cells assessed as early apoptotic cells at 2 uM incubated for 48 hrs by annexin V FITC/propidium iodide staining based flow cytometry (reference value: 0.66 %); format: functional
HGC-27 [4] = assay: Induction of apoptosis in human HGC-27 cells assessed as viable cells at 2 uM incubated for 48 hrs by annexin V FITC/propidium iodide staining based flow cytometry (reference value: 93.0 %); format: functional; details: read-out: Activity
HGC-27 [5] = assay: Induction of cell cycle arrest in human HGC-27 cells assessed as reduction in accumulation of cells at G0/G1 phase at 0.5 to 8 uM incubated for 24 hrs by PI staining based flow cytometry analysis; format: functional; details: dose 0.5-8 µM
HGC-27 [6] = assay: Induction of apoptosis in human HGC-27 cells assessed as late apoptotic cells at 0.5 uM incubated for 48 hrs by annexin V FITC/propidium iodide staining based flow cytometry (reference value: 5.14 %); format: functional
HGC-27 [7] = assay: Induction of apoptosis in human HGC-27 cells assessed as necrotic cells at 0.5 uM incubated for 48 hrs by annexin V FITC/propidium iodide staining based flow cytometry (reference value: 1.24 %); format: functional
HGC-27 [8] = assay: Induction of apoptosis in human HGC-27 cells assessed as viable cells at 0.5 uM incubated for 48 hrs by annexin V FITC/propidium iodide staining based flow cytometry (reference value: 93.0 %); format: functional; details: read-out: Activity
HGC-27 [9] = assay: Induction of apoptosis in human HGC-27 cells assessed as upregulation in cleaved caspase-9 expression at 0.5 to 8 uM incubated for 48 hrs by Western blot analysis; format: functional, cell-based; details: dose 0.5-8 µM
HGC-27 [10] = assay: Induction of apoptosis in human HGC-27 cells assessed as early apoptotic cells at 8 uM incubated for 48 hrs by annexin V FITC/propidium iodide staining based flow cytometry (reference value: 0.66 %); format: functional
HGC-27 [11] = assay: Induction of cell cycle arrest in human HGC-27 cells assessed as reduction in accumulation of cells at S phase at 0.5 to 8 uM incubated for 24 hrs by PI staining based flow cytometry analysis; format: functional; details: dose 0.5-8 µM
HGC-27 [12] = assay: Induction of apoptosis in human HGC-27 cells assessed as viable cells at 8 uM incubated for 48 hrs by annexin V FITC/propidium iodide staining based flow cytometry (reference value: 93.0 %); format: functional; details: read-out: Activity
HGC-27 [13] = assay: Induction of apoptosis in human HGC-27 cells assessed as early apoptotic cells at 0.5 uM incubated for 48 hrs by annexin V FITC/propidium iodide staining based flow cytometry (reference value: 0.66 %); format: functional
HGC-27 [14] = assay: Induction of apoptosis in human HGC-27 cells assessed as upregulation in cleaved caspase-3 expression at 0.5 to 8 uM incubated for 48 hrs by Western blot analysis; format: functional, cell-based; details: dose 0.5-8 µM
MGC-803 [15] = assay: Induction of cell cycle arrest in human MGC-803 cells assessed as reduction in accumulation of cells at S phase at 2.5 to 10 uM incubated for 24 hrs by PI staining based flow cytometry analysis; format: functional; details: dose 2.5-10 µM
HGC-27 [16] = assay: Induction of apoptosis in human HGC-27 cells assessed as late apoptotic cells at 8 uM incubated for 48 hrs by annexin V FITC/propidium iodide staining based flow cytometry (reference value: 5.14 %); format: functional
HGC-27 [17] = assay: Induction of cell cycle arrest in human HGC-27 cells assessed as reduction in accumulation of cells at G2/M phase at 0.5 to 8 uM incubated for 24 hrs by PI staining based flow cytometry analysis; format: functional; details: dose 0.5-8 µM
[18] = Acute toxicity in Kunming mouse assessed as effect on spleen pathology at 1000 mg/kg, po measured after 14 days; format: organism-based; details: in vivo, 336 h, time 14 day
SGC-7901 = assay: cells; format: functional, cell-based; details: Homo sapiens, SGC-7901, 72 h
Description: Cytotoxicity against human SGC-7901 cells assessed as inhibition of cell growth incubated for 72 hrs by MTT assay

HGC-27 [19] = assay: Induction of cell cycle arrest in human HGC-27 cells assessed as reduction in accumulation of cells at G2/M phase at 0.1 to 1.6 uM incubated for 24 hrs by PI staining based flow cytometry analysis; format: functional; details: dose 0.1-1.6 µM
[20] = Acute toxicity in Kunming mouse assessed as effect on lung pathology at 1000 mg/kg, po measured after 14 days; format: organism-based; details: in vivo, 336 h, time 14 day
HGC-27 [21] = assay: Induction of cell cycle arrest in human HGC-27 cells assessed as reduction in accumulation of cells at S phase at 0.1 to 1.6 uM incubated for 24 hrs by PI staining based flow cytometry analysis; format: functional; details: dose 0.1-1.6 µM
[22] = Toxicity in BALB/c mouse xenografted with human HGC-27 cells assessed as body weight loss at 75 to 150 mg/kg, po bid administered for 19 days and measured every other day; format: organism-based; details: in vivo, 456 h, dose 75-150 mg/kg, time 19 day
[23] = Toxicity in BALB/c mouse xenografted with human HGC-27 cells assessed as platelet distribution width at 75 mg/kg, po bid for 19 days; format: organism-based; details: in vivo, 456 h, time 19 day
HGC-27 [24] = assay: In vivo induction of apoptosis in human HGC-27 cells xenografted in BALB/c mouse assessed as increase in cleaved caspase-9 expression at 75 to 150 mg/kg , po bid administered for 19 days and measured by immunohistochemical analysis; format: functional, organism-based; details: dose 75-150 mg/kg, time 19.0 day
[25] = Toxicity in BALB/c mouse xenografted with human HGC-27 cells assessed as red blood cell distribution width at 150 mg/kg, po bid for 19 days; format: organism-based; details: in vivo, 456 h, time 19 day
HGC-27 [26] = assay: Induction of apoptosis in human HGC-27 cells assessed as late apoptotic cells at 0.1 uM incubated for 48 hrs by annexin V FITC/propidium iodide staining based flow cytometry (reference value: 5.14 %); format: functional
HGC-27 [27] = assay: Induction of apoptosis in human HGC-27 cells assessed as upregulation in cytochrome c expression at 0.1 to 1.6 uM incubated for 48 hrs by Western blot analysis; format: functional, cell-based; details: dose 0.1-1.6 µM
HGC-27 [28] = assay: Antitumor activity against human HGC-27 cells xenografted in BALB/c mouse assessed as tumor growth inhibition at 75 mg/kg, po bid administered for 19 days; format: functional; details: HGC-27, 456 h, time 19 day, read-out: TGI
HGC-27 [29] = assay: Induction of apoptosis in human HGC-27 cells assessed as viable cells at 0.1 uM incubated for 48 hrs by annexin V FITC/propidium iodide staining based flow cytometry (reference value: 93.0 %); format: functional; details: read-out: Activity
[30] = Toxicity in BALB/c mouse xenografted with human HGC-27 cells assessed as monocyte level at 150 mg/kg, po bid for 19 days; format: organism-based; details: in vivo, 456 h, time 19 day
HGC-27 [31] = assay: Induction of apoptosis in human HGC-27 cells assessed as early apoptotic cells at 1.6 uM incubated for 48 hrs by annexin V FITC/propidium iodide staining based flow cytometry (reference value: 0.66 %); format: functional
HGC-27 [32] = assay: Induction of cell cycle arrest in human HGC-27 cells assessed as upregulation of p27 expression at 0.1 to 1.6 uM incubated for 48 hrs by Western blot analysis; format: functional, cell-based; details: dose 0.1-1.6 µM

O=C(NCc1ccc(NC(=O)c2ccccc2N2CCCC2)cc1)OCc1cccnc1
Activity (MGC-803 [1]): 14.6%
Activity (MGC-803 [2]): 0.85%
Activity (HGC-27 [3]): 1.59%
viability at 2 µM (HGC-27 [4]): 30.4%
Activity (HGC-27 [5]): Active
Activity (HGC-27 [6]): 17.4%
Activity (HGC-27 [7]): 2.55%
viability at 0.5 µM (HGC-27 [8]): 79.1%
Activity (HGC-27 [9]): Active
Activity (HGC-27 [10]): 3.68%
Activity (HGC-27 [11]): Active
viability at 8 µM (HGC-27 [12]): 36.2%
Activity (HGC-27 [13]): 0.92%
Activity (HGC-27 [14]): Active
Activity (MGC-803 [15]): Active
Activity (HGC-27 [16]): 49.1%
Activity (HGC-27 [17]): Active

O=C(NCc1ccc(NC(=O)c2cc(F)ccc2N2CCCC2)cc1)OCc1cccnc1
Activity [18]: Non-Toxic
IC50 (SGC-7901): 44.8 µM
Activity (HGC-27 [19]): Active
Activity [20]: Non-Toxic
Activity (HGC-27 [21]): Active
Activity [22]: Non-Toxic
Activity [23]: 16.93
Activity (HGC-27 [24]): Active
Activity [25]: 15.33%
Activity (HGC-27 [26]): 14.2%
Activity (HGC-27 [27]): Active
inhibition in vivo at 75 mg/kg (HGC-27 [28]): 52.4%
viability at 0.1 µM (HGC-27 [29]): 83.5%
Activity [30]: 1.7 10^9/L and 2.13%
Activity (HGC-27 [31]): 0.31%
Activity (HGC-27 [32]): Active

Reference: ChEMBL document CHEMBL5143508, “Design, synthesis and biological evaluation of novel o-aminobenzamide derivatives as potential anti-gastric cancer agents in vitro and in vivo” (Eur J Med Chem, 2022)
